From US20240358727A1, “MICROSCALE THERMOPHORESIS TO EVALUATE CHANNEL LIPID INTERACTIONS AND METHODS OF TREATING NAV CHANNELS RELATED DISEASES” (Northeastern University, priority 2023, published 2024)

Target: T1, Nav1.4 (Rattus norvegicus, UniProt P15390)
T1 construct: expressed in transfected cells; host or cells: HEK293T (ATCC CRL-3216)
Assay: Whole-cell patch clamp of rNav1.4 + Navβ1 in HEK293T cells with optogenetic PI-phosphatases and diC8PI(4,5)P2 in the pipette
Type: cell-based
Conditions: for ILATE: % of IPEAK
Source text: Purified diC8PI(4,5)P2 was purchased from Echelon Biosciences. For oocyte studies, plasmid vectors were linearized after the Xenopus β-globulin domain of each construct, verified by gel electrophoresis, and transcribed in vitro using the mMESSAGE mMACHINE T7 Transcription Kit (Thermo Fisher Scientific) to generate cRNA according to the manufacturer's protocol. Rat Nav1.4 (SCN4 Å; NM_013178.2) was handled in pBud, a CMV driven vector. To study Nav1.4 currents, the plasmid was used in concert with Navβ1 (SCN1B, isoform b; NM_001037) in pRAT, a CMV driven vector. The inactivation deficient mutant, Nav1.4-WCW was handled in pCap. CRY2-Sac2 was subcloned into pMAX(+) for expression in mammalian cells, or the generation of cRNA for use in Xenopus oocytes. The open reading frame of pseudojanin was designed with an N-terminal CRY2-tag in the pMAX(+) vector and was generated by Genscript (Piscataway, NY).
Human embryonic kidney (HEK293T) cells were acquired from American Type Culture Collection (ATCC, Cat #CRL-3216) and were maintained in Dulbecco's modified Eagle's medium (ATCC) supplemented with 100 units/ml penicillin, 100 μg/ml streptomycin, and 10% (vol/vol) fetal bovine serum. Cells were routinely confirmed to be mycoplasma free via PCR and Hoescht stain. The cells were incubated in a 37° C., humified incubator supplemented with 5% CO2. For our experiments, cells were seeded on glass coverslips in 35 mm culture dishes at least one day before transfection. Cells were transiently transfected with rNav1.4, Navβ1, CIBN-CAAX and CRY2-5-PtaseOCRL or CRY2-pseudojanin, along with the near-infrared PI(4,5)P2 biosensor iRFP-PHPLCδ1 as indicated, in OptiMEM using polyethyleneimine (PEI) for 1-2 hours at a ratio of 1 μg of DNA to 4 μL PEI. The near red fluorescent protein, mCherry, was typically used as a transfection marker. The cells were studied 24-48 hours after transfection.
Whole-cell patch clamp. HEK293T cells were studied by whole cell patch-clamp. Currents were recorded with a Tecella Pico-2 amplifier (Tecella) controlled using WinWCP software (University of Strathclyde). Currents were low pass (Bessel) filtered at 9 kHz and digitized at 50 kHz. […] The cells were perfused using a multichannel gravity-driven perfusion manifold (Warner) with an extracellular solution containing (in mM): 130 NaCl, 5 CsCl, 1.2 MgCl2·6H2O, 1.5 CaCl2), 8 Glucose, 10 HEPES. Data was collected from cells with a series resistance less than 15 MQ. The junction potential was less than 3 mV and was not compensated.
Current-voltage (I-V) relationships were evoked from a holding potential of −90 mV by 400 ms test pulses between −80 and 50 mV, in 5 mV increments. Steady-state inactivation was studied by holding the cells at −140 mV and then comparing currents evoked by 50 ms test pulses between −140 mV and 30 mV to those evoked by a 100 ms prepulse to […]. A 10 s interpulse interval was used in both cases. Normalized peak current values are plotted against the prepulse potential (mV). To quantify voltage-dependence, the data were normalized, plotted against the driving force to generate normalized conductance-voltage relationships (G-V) that were fit using a Boltzmann function, I=IMAX/(1+exp[V−V ½/K]), where IMAX is the maximum current and K is the slope factor. Recovery from fast inactivation was studied by holding cells at −100 mV and comparing currents evoked by a pair of 50 ms test step to −30 mV separated by an interpulse interval that increased in duration by 5 ms increments per sweep. The time constant for recovery from inactivation (τinact) was obtained from mono-exponential fits of the normalized current amplitude to the recovery time using It=Imax+A[e^−t/τ], where ‘A’ is the amplitude of components and ‘t’ is time. Whole-cell currents were normalized to cell capacitance. Mean±SEM capacitance values were 12±4 pF for HEK293T cells. […]

[1] = 200 μM diC8-PIP2 in patch pipette
[2] = 200 μM diC8PI(4,5)P2, CRY2-PJ cells
[3] = 200 μM diC8PI(4,5)P2 vs CRY2-PJ BL
[4] = CRY2-5POCRL, BL + 200 μM diC8PI(4,5)P2
[5] = CRY2-5POCRL, Control + 200 μM diC8PI(4,5)P2
[6] = CRY2-PJ, BL + 200 μM diC8PI(4,5)P2
[7] = CRY2-PJ, Control + 200 μM diC8PI(4,5)P2

T1 sequence (P15390 whole entry): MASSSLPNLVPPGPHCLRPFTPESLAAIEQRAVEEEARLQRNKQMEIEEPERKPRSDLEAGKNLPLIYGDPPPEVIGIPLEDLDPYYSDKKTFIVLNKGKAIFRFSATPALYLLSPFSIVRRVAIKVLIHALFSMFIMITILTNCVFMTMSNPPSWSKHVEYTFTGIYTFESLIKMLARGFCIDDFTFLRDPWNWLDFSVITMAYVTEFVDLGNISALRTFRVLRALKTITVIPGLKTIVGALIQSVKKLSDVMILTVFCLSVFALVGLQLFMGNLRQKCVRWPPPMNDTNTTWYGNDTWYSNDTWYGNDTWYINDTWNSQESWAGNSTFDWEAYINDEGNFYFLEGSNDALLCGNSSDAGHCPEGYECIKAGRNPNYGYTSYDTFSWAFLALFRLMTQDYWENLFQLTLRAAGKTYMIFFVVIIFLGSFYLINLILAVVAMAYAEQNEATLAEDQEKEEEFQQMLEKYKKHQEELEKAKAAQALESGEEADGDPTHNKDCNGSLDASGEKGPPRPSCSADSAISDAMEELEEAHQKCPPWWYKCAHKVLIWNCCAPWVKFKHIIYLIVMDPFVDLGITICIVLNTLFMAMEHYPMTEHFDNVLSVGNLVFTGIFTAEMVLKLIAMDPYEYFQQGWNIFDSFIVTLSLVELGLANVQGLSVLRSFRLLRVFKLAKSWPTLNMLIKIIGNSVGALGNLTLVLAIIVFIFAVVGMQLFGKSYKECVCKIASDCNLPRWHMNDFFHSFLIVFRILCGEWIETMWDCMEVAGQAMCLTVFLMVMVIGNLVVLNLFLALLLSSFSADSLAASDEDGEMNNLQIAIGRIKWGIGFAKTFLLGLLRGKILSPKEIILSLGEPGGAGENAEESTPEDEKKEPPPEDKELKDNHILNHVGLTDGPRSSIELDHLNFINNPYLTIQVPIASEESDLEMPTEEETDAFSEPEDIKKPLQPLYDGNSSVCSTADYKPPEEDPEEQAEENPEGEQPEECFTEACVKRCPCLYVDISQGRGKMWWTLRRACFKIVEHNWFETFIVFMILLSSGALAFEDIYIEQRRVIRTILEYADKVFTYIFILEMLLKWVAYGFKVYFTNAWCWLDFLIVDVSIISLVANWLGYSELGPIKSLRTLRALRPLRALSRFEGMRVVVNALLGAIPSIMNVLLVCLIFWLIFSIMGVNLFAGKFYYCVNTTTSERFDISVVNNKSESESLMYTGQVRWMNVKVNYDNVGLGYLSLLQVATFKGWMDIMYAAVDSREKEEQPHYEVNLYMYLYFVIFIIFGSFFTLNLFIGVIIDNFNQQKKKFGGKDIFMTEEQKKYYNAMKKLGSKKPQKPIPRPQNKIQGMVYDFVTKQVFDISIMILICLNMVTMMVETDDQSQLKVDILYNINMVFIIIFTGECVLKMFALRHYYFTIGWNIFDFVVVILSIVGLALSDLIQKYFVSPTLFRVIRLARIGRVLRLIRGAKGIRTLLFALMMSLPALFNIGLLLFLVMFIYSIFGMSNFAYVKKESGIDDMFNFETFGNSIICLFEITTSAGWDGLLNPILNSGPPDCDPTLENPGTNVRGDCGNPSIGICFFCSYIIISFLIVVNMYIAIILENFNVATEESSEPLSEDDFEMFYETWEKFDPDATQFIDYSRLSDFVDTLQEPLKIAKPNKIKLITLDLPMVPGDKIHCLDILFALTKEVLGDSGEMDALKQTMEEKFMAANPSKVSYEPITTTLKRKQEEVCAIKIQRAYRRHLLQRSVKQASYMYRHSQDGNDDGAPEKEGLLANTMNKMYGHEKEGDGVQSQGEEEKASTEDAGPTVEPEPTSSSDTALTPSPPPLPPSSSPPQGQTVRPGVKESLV
T1 sequence (Q07699 19-218 partner): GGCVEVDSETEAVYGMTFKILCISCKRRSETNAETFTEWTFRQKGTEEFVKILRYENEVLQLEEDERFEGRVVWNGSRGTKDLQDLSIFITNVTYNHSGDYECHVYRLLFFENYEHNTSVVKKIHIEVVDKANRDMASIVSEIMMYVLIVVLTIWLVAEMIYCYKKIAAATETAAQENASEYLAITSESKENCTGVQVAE

For `CCCCCCCC(=O)OC[C@H](COP(=O)(O)O[C@@H]1[C@H](O)[C@H](O)[C@@H](OP(=O)(O)O)[C@H](OP(=O)(O)O)[C@H]1O)OC(=O)CCCCCCC` [diC8-PIP2], the “effect on V½ACT of Nav1.4” value [1] was “rightward shift”, the “effect on V½SSI of Nav1.4” value [1] was “no effect” and the “effect on CRY2-5POCRL effects on voltage-dependent gating” value (200 μM diC8PI(4,5)P2) was “precluded”. For the same compound, the “effect on CRY2-PJ photoactivation effects on V½act” value (200 μM diC8PI(4,5)P2) was “ameliorated”, the “right shift in V½act” value (200 μM diC8PI(4,5)P2, CRY2-5POCRL cells) was roughly 5 mV and the “effect on increase in the magnitude of the window current” value (200 μM diC8PI(4,5)P2, CRY2-PJ) was “abolished”. For the same compound, the “right-shift in V½SSI compared to untreated cells” value [2] was roughly 3 mV, the “right-shift in V½act compared to untreated cells” value [2] was −5.5 mV and the “overall excursion in mean V½ACT between diC8PI(4,5)P2 treated cells and control cells after photoactivation” value (200 μM diC8PI(4,5)P2 vs CRY2-5POCRL BL) was −12.5±3 mV. The “change in mean V½act between diC8PI(4,5)P2 treated cells and control cells after dephosphorylation” value [3] was −16±2 mV, the “shift in mean V½SSI between diC8PI(4,5)P2 treated cells and control cells after dephosphorylation” value [3] was −5.4±2 mV and the KAct [4] was 5.2 ± 0.3 mV. The KSSI [4] was −5.1 ± 1^ mV, the V½SSI [4] was −57 ± 1 mV and the V½act [4] was −32 ± 1 mV. The “tau (fast inactivation)” value [4] was 7.4 ± 0.6 ms, the IPEAK (CRY2-5POCRL, BL + 200 μM diC8PI(4,5)P2, −20 mV) was −268 ± 25 pA/pF and the IPEAK (CRY2-5POCRL, BL + 200 μM diC8PI(4,5)P2, −40 mV) was −202 ± 21 pA/pF. It also gave an IPEAK (CRY2-5POCRL, BL + 200 μM diC8PI(4,5)P2, −60 mV) of −19 ± 4 pA/pF, an ILATE [4] of 0.27 ± 0.02% and a KAct [5] of 5.0 ± 0.2 mV. The KSSI [5] was −5.0 ± 2^ mV, the V½SSI [5] was −58 ± 2 mV and the V½act [5] was −32 ± 1 mV. For the same compound, the “tau (fast inactivation)” value [5] was 6.0 ± 0.3 ms, the IPEAK (CRY2-5POCRL, Control + 200 μM diC8PI(4,5)P2, −20 mV) was −274 ± 32 pA/pF and the IPEAK (CRY2-5POCRL, Control + 200 μM diC8PI(4,5)P2, −40 mV) was −186 ± 28 pA/pF. For the same compound, the IPEAK (CRY2-5POCRL, Control + 200 μM diC8PI(4,5)P2, −60 mV) was −23 ± 6 pA/pF, the ILATE [5] was 0.26 ± 0.02% and the KAct [6] was 5.0 ± 1.0 mV. It also gave a KSSI [6] of −5.1 ± 0.5 mV, a V½SSI [6] of −54 ± 2 mV and a V½act [6] of −33 ± 4 mV. The “tau (fast inactivation)” value [6] was 5.1 ± 0.3 ms, the IPEAK (CRY2-PJ, BL + 200 μM diC8PI(4,5)P2, −20 mV) was −272 ± 24 pA/pF and the IPEAK (CRY2-PJ, BL + 200 μM diC8PI(4,5)P2, −40 mV) was −209 ± 22 pA/pF. The IPEAK (CRY2-PJ, BL + 200 μM diC8PI(4,5)P2, −60 mV) was −23 ± 3 pA/pF, the ILATE [6] was 0.38 ± 0.03% and the KAct [7] was 4.0 ± 0.7 mV. It also gave a KSSI [7] of −4.2 ± 1.0 mV, a V½SSI [7] of −55 ± 4 mV and a V½act [7] of −33 ± 3 mV. The “tau (fast inactivation)” value [7] was 4.7 ± 0.2 ms, the IPEAK (CRY2-PJ, Control + 200 μM diC8PI(4,5)P2, −20 mV) was −264 ± 18 pA/pF and the IPEAK (CRY2-PJ, Control + 200 μM diC8PI(4,5)P2, −40 mV) was −194 ± 24 pA/pF. For the same compound, the IPEAK (CRY2-PJ, Control + 200 μM diC8PI(4,5)P2, −60 mV) was −19 ± 2 pA/pF and the ILATE (CRY2-PJ, Control + 200 μM diC8PI(4,5)P2, pulse to −20 mV) was 0.37 ± 0.1%.
